Numbering of substitutions follows the chain as printed. Several values for one entry are separate records, joined by “and”; a condition that tells them apart may be missing. Equal values may be shown once.
How the values were obtained:
[1] = target: T1, Q150A mutant mouse 5-HT3ASR (Mus musculus, UniProt P23979, Q151A); assay: biochemical
T1 sequence (P23979 24-483 isoform P23979-2 Q151A): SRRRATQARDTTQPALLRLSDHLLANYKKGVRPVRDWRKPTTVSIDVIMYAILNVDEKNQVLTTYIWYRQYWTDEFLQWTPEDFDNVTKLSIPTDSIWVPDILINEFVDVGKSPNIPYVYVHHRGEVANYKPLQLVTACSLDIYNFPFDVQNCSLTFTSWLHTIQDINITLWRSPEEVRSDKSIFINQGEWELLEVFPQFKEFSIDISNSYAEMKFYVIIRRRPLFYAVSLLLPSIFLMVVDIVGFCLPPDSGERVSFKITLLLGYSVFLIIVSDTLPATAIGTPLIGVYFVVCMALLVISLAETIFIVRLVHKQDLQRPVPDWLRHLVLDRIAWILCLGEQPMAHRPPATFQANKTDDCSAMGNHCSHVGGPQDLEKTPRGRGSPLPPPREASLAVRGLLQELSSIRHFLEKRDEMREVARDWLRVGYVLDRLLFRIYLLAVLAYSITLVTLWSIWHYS

[2] = target: T2, Y140A mutant mouse 5-HT3ASR (Mus musculus, UniProt P23979, Y141A); assay: Inhibition of [^3H]granisetron binding, Y140A receptor; settings: for relative increase in Ki, mutant vs wildtype: Y140A vs wildtype
T2 sequence (P23979 24-483 isoform P23979-2 Y141A): T1 sequence (P23979 24-483 isoform P23979-2 Q151A) with Y118A, A128Q

[3] = target: T3, V141A mutant mouse 5-HT3ASR (Mus musculus, UniProt P23979, V142A); assay: biochemical
T3 sequence (P23979 24-483 isoform P23979-2 V142A): T1 sequence (P23979 24-483 isoform P23979-2 Q151A) with V119A, A128Q

[4] = target: T4, H145A mutant mouse 5-HT3ASR (Mus musculus, UniProt P23979, H146A); assay: biochemical
T4 sequence (P23979 24-483 isoform P23979-2 H146A): T1 sequence (P23979 24-483 isoform P23979-2 Q151A) with H123A, A128Q

[5] = target: T5, Y152A mutant mouse 5-HT3ASR (Mus musculus, UniProt P23979, Y153A); assay: Inhibition of [^3H]granisetron binding, Y152A receptor; settings: for relative increase in Ki, mutant vs wildtype: Y152A vs wildtype
T5 sequence (P23979 24-483 isoform P23979-2 Y153A): T1 sequence (P23979 24-483 isoform P23979-2 Q151A) with A128Q, Y130A

[6] = target: T6, R146A mutant mouse 5-HT3ASR (Mus musculus, UniProt P23979, R147A); assay: biochemical
T6 sequence (P23979 24-483 isoform P23979-2 R147A): T1 sequence (P23979 24-483 isoform P23979-2 Q151A) with R124A, A128Q

| SMILES | Ki [1] [nM] | Ki [2] [nM] | relative increase in Ki, mutant vs wildtype [2] | Ki [3] [nM] | Ki [4] [nM] | Ki [5] [nM] | relative increase in Ki, mutant vs wildtype [5] | Ki [6] [nM] |
| --- | --- | --- | --- | --- | --- | --- | --- | --- |
| COc1cc2c3cc1Oc1cc(ccc1O)C[C@@H]1c4c(cc(OC)c(O)c4Oc4ccc(cc4)C[C@@H]3N(C)CC2)CC[N+]1(C)C [d-tc, d-tubocurarine] | 9.3 ± 1.3 | 300 ± 120 | 50 ± 12 fold and 50 fold | 4.7 ± 0.87 | 19 ± 2.6 | 60 ± 19 | 10.0 ± 2.3 fold and 10 fold | 29 ± 4.9 |
| c1ccc(Cn2c(N3CCNCC3)nc3ccccc32)cc1 [lerisetron] | 1.1 ± 0.21 | 2.1 ± 0.33 | 4.6 fold | 0.2 ± 0.02 | 0.42 ± 0.04 | 150 ± 36 | 190 ± 43 fold and 190 fold | 2.3 ± 0.31 |

From article PMC117120 (BMC Biochemistry, 2002)
